Here are results for 2 molecules from patent publication US8846704B2, “Thiopyrimidine-based compounds and uses thereof” (YM Biosciences Austraila Pty Ltd, priority 2007, dated 2014).

Each structure is given as a SMILES string.

In one experiment the target is T1, human JAK2 (Homo sapiens, UniProt O60674).
T1 construct: The kinase domain of human JAK2 was amplified; GST (N); made in house; host or cells: Sf9 insect cells (baculovirus)
The experiment in a line: Alphascreen tyrosine kinase enzyme assay, JAK2 kinase domain. Format: biochemical. The conditions noted are these: read-out: JAK2 IC50_nM. An outline of the steps: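 JAK2 kinase domain expressed in baculovirus/Sf9 and glutathione-affinity purified. Compounds (final […]) pre-incubated 20 min with enzyme in 10 mM HEPES pH 7.5, MgCl2, NaCl, vanadate, 0.1% Tween 20.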

The next experiment deals with CTLL2. Nature of the experiment: Cellular screening, CTLL2 cells, Alamar Blue. Format: cell-based. The conditions noted are these: Mus musculus, CTLL-2, read-out: CTLL2 IC50_nM. The method, boiled down: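 Viability is read with Alamar Blue at 544 nm, the dye added for the final 4-6 hours. Compounds were incubated for 40 hr with CTLL2 cells taken from late-log-phase culture, at 37° C in 5% CO2.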
Background: Resazurin is reduced to fluorescent resorufin, in cell work by metabolically active cells.

Experiment [1] addresses T2, BaF3 TELJAK2 cells (BafT_J2) (Homo sapiens, UniProt O60674).
T2 construct: fused on or other part: TEL (ETV6) N-terminal part, coding nucleotides 1-487, serves as the oligomerising partner; It is fused through a Sal I site to the JAK2 kinase domain and expressed from pTRE2 in BaF3 cells bearing pTET-off; P41212 (Transcription factor ETV6)
The experiment in a line: Cellular screening, BaF3 TEL:JAK2 cells, Alamar Blue. Format: cell-based. To be noted: 40 hr, read-out: BafT_J2 IC50_nM. The method, boiled down:
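Tet-off BaF3 cells carrying a TEL (nt 1-487)–JAK2 kinase-domain fusion, grown factor-independently in DMEM with 10% Tet-approved FBS without WEHI 3B medium. Compounds were diluted to 20 μM in screening plates, and cells (50,000–200,000 cell/mL at 1.1×) were incubated 40 hr at 37 °C, 5% CO2. Alamar Blue was then added for 4-6 hours; read at 544 nm.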

T1 sequence (O60674 849-1124 limits assumed): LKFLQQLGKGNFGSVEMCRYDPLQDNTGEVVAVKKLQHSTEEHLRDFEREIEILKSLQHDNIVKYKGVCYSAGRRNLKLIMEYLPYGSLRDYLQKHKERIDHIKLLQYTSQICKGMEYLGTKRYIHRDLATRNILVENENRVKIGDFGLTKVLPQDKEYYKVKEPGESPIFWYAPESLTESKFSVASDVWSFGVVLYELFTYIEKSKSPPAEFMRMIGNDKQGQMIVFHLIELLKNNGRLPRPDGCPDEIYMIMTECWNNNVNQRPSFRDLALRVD
T2 sequence (O60674 whole entry, change not shown, the tested form may be a part): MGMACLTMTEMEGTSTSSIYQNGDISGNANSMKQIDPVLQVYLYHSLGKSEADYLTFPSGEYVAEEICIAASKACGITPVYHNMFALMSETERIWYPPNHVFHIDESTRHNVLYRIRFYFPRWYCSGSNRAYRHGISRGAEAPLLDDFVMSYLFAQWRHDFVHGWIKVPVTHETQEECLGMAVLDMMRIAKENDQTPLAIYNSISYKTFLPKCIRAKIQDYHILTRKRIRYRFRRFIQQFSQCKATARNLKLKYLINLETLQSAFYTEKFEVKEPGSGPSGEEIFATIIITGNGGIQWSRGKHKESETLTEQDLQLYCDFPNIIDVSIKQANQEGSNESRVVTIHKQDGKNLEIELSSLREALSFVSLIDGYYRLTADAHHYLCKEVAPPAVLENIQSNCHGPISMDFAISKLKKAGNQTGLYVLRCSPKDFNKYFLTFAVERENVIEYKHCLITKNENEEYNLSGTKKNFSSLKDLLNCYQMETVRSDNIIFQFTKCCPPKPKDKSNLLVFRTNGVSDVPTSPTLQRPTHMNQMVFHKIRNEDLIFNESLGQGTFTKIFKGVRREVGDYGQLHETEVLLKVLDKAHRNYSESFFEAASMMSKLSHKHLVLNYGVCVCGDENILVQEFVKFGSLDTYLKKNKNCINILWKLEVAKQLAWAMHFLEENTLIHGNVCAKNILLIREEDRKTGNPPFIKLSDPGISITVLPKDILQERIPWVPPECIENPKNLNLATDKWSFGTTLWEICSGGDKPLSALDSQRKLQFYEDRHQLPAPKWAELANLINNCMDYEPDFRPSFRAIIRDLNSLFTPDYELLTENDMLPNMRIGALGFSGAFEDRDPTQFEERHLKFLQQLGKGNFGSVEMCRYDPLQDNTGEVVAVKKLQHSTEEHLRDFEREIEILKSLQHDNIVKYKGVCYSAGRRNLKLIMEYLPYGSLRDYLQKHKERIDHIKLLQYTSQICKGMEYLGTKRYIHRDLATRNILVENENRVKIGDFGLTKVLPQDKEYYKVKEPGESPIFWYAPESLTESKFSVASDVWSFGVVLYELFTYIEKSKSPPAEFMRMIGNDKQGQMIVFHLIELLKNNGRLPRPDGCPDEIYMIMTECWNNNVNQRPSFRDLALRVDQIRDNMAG

In the case of `Cc1cnc(Nc2ccc(N3CCOCC3)cc2)nc1Sc1ccc(N2C(=O)C=CC2=O)cc1` [Compound 390, 1-(4-(5-methyl-2-(4-morpholinophenylao)pyrimidin-4-ylthio)phenyl)-1H-pyrrole-2,5-dione], the IC50 on human JAK2 is less than 0.5 µM; in the experiment with CTLL2 it was less than 5 µM. Further, the GI50 in experiment [1] was less than 5 µM.

Regarding `C=CC(=O)Nc1ccc(Sc2ccnc(Nc3ccc4c(c3)OCO4)n2)cc1` [Compound 393, N-(4-(2-(benzo[d][1,3]dioxol-5-ylao)pyrimidin-4-ylthio)phenyl)acrylamide], the IC50 was more than 1 µM at human JAK2 and less than 5 µM in the experiment with CTLL2. In experiment [1], the GI50 is less than 20 µM.
